Test results: patent publication US8871753B2, “Macrocyclic compounds and their use as kinase inhibitors” (Incyte Corporation, priority 2008, dated 2014)
pIC50: −log10 of the molar value. Where a name gives a salt, the structure may show the parent alone.

Columns and labels:
Assay type in all cases: biochemical
TYK2 = TYK2 (Homo sapiens, UniProt P29597); assay: TYK2 kinase inhibition (Table A1); conditions: Table B1
[1] = target: T1, Recombinant Human Anaplastic Lymphoma Kinase (Homo sapiens, UniProt Q9UM73); assay: ALK HTRF kinase assay; conditions: compound at a concentration of 500 nM or 1 mM (not specified); cells shown as percentage
T1 construct: purchased Invitrogen, Carlsbad, Calif
Procedure, shortened: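 Compounds were incubated with recombinant human ALK and a biotin-tagged peptide substrate. Product was captured with streptavidin-APC and probed with a europium anti-phosphotyrosine antibody, and plates were read for time-resolved fluorescence. Dose-response data were fitted to derive IC50.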

[2] = target: T2, human JAK2 (a.a. 828-1132) (Homo sapiens, UniProt O60674); assay: In vitro JAK kinase assay (HTRF, phosphorylation of a biotinylated peptide), JAK2; conditions: Table B1
T2 construct: JAK2 (a.a. 828-1132); His tag (N); made in house; host or cells: insect cells (baculovirus)
Procedure, shortened: (§1)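 Kinase reactions ran at room temperature for 1 h with ATP matched per isoform (JAK1 90 μM, JAK2 30 μM, JAK3 3 μM). After an EDTA stop, the phosphorylated biotin-peptide was read by HTRF using Eu-Py20 and SA-APC after 40 min binding.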

[3] = target: T3, human JAK1 (a.a. 837-1142) (Homo sapiens, UniProt P23458); assay: In vitro JAK kinase assay (HTRF, phosphorylation of a biotinylated peptide), JAK1; conditions: Table B1; read-out: JAK1 IC50
T3 construct: human JAK1 (a.a. 837-1142); His tag (N); made in house; host or cells: insect cells (baculovirus)
Procedure, shortened: as §1

[4] = target: T4, human JAK3 (a.a. 781-1124) (Homo sapiens, UniProt P52333); assay: In vitro JAK kinase assay (HTRF, phosphorylation of a biotinylated peptide), JAK3; conditions: Table B1
T4 construct: JAK3 (a.a. 781-1124); His tag (N); made in house; host or cells: insect cells (baculovirus)
Procedure, shortened: as §1

Chain of TYK2 (P29597 whole entry): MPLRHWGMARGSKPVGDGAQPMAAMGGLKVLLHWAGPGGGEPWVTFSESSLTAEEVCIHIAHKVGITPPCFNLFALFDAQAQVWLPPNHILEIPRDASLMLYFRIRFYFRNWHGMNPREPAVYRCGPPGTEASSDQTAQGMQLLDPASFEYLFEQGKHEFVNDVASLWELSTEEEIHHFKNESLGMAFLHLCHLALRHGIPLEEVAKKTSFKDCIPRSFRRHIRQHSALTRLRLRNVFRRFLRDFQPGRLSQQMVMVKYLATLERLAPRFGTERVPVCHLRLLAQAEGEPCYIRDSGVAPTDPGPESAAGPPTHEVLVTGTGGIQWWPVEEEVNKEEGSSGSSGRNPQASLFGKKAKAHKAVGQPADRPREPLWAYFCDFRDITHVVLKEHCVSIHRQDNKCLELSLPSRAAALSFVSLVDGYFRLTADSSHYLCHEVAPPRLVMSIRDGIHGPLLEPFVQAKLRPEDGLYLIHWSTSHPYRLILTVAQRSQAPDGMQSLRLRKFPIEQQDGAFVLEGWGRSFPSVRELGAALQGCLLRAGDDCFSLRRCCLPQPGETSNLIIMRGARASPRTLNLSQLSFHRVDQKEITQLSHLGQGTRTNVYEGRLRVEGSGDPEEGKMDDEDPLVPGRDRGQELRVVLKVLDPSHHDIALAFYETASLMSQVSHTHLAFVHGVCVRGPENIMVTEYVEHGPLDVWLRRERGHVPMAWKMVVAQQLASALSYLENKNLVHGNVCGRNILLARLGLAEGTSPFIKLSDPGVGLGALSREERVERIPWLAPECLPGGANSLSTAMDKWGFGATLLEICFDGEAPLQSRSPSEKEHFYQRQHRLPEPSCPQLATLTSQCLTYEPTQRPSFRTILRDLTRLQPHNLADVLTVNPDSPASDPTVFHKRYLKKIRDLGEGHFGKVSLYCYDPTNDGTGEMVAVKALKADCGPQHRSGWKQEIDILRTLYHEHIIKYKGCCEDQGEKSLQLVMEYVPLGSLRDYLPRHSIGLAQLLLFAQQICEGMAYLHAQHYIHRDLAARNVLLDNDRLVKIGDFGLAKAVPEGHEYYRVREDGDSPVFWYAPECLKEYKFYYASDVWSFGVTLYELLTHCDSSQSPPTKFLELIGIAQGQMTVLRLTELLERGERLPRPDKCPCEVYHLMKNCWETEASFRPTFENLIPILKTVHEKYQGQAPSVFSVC
T1 sequence (Q9UM73 19-1620): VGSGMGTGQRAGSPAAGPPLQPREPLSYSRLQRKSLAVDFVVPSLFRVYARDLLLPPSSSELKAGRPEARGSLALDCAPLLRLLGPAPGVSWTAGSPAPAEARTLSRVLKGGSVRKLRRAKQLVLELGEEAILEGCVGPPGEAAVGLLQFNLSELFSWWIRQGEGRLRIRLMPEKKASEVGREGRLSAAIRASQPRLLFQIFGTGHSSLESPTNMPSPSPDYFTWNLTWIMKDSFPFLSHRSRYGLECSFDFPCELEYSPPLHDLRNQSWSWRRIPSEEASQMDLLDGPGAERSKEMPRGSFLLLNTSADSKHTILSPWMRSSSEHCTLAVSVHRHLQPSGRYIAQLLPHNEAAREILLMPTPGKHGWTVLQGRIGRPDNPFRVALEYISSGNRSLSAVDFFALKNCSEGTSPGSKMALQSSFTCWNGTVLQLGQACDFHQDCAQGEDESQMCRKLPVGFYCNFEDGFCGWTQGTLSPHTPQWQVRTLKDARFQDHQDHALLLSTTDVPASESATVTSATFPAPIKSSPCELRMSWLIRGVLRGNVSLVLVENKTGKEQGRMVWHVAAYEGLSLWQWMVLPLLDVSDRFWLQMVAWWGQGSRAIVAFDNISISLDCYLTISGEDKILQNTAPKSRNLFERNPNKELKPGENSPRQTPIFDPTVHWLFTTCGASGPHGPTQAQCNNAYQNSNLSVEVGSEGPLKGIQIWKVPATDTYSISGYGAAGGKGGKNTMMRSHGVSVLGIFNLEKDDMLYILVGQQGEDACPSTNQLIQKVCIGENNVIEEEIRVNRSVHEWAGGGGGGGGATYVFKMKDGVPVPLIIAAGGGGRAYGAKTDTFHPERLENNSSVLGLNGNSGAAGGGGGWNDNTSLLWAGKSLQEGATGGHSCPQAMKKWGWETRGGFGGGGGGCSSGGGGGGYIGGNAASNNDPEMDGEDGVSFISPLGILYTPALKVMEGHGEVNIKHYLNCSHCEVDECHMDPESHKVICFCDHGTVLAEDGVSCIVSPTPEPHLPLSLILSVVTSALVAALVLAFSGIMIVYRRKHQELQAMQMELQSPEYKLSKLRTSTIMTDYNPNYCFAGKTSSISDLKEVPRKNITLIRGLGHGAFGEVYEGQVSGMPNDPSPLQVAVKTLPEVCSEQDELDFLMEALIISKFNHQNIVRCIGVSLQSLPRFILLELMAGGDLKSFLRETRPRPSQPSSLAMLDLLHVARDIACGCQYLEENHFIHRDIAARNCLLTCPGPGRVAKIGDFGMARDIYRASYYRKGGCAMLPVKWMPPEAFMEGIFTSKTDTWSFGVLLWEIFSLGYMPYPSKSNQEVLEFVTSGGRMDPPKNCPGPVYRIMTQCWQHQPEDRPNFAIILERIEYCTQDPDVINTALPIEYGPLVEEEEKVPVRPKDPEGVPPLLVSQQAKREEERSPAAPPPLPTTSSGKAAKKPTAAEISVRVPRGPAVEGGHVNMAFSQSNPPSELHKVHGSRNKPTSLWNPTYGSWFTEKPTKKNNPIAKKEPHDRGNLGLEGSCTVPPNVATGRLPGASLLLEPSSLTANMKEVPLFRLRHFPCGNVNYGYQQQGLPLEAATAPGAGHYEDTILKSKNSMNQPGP
T4 sequence (P52333 781-1124): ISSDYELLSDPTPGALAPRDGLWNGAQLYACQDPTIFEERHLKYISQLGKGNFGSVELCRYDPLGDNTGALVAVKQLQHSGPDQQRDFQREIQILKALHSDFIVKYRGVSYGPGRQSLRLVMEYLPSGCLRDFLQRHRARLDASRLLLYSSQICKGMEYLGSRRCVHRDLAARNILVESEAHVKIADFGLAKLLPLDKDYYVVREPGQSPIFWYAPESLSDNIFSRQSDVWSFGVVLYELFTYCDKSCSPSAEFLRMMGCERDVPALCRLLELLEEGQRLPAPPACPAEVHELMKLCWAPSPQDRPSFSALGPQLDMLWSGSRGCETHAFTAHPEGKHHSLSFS
T3 sequence (P23458 849-1154): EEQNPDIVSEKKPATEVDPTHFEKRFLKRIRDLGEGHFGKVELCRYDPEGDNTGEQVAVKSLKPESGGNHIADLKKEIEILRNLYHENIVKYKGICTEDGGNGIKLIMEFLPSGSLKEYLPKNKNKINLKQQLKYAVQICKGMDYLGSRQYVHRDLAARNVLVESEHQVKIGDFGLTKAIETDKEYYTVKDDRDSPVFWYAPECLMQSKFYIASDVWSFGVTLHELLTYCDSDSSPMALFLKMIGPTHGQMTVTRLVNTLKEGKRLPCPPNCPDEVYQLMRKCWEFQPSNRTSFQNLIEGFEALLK
T2 sequence (O60674 828-1132): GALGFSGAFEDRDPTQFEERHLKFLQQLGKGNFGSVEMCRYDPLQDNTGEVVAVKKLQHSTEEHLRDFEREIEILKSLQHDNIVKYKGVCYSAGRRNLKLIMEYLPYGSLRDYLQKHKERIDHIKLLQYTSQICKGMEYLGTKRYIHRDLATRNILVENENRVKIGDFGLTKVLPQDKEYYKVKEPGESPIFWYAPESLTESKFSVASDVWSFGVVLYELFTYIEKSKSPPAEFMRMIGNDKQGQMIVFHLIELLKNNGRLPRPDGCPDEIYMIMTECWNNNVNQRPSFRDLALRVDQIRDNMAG

| SMILES | pIC50 (TYK2) | ALK % of inhibition at a concentration of 500 nM or 1 mM [1] | pIC50 [2] | pIC50 [3] | pIC50 [4] |
| --- | --- | --- | --- | --- | --- |
| CN(C(=O)Nc1ccc2cc1CCc1cncc(c1)Nc1ncc(Cl)c(n1)N2)[C@H]1CCN(Cc2ccccc2)C1 [Example B284, N-[(3S)-1-Benzylpyrrolidin-3-yl]-N′-[6-chloro-2,4,8,18,22-pentaazatetracyclo[14.3.1.1(3,7).1(9,13)]docosa-1(20),3(22),4,6,9(21),10,12,16,18-nonaen-12-yl]-N-methylurea] | 6.39 | 25% | 6.43 | 7.14 | < 6.00 |
| O=C(Nc1ccc2cc1CCc1cncc(c1)Nc1ncc(Cl)c(n1)N2)N1CCNCC1 [Example B285, N-[6-Chloro-2,4,8,18,22-pentaazatetracyclo[14.3.1.1(3,7).1(9,13)]docosa-1(20),3(22),4,6,9(21),10,12,16,18-nonaen-12-yl]piperazine-1-carboxamidetrihydrochloride] | < 6.70 | 38% | < 6.70 | 7.00 | < 6.70 |
| O=C(Nc1ccc2cc1CCc1cncc(c1)Nc1ncc(Cl)c(n1)N2)N1CCN(C(=O)c2ccccc2)CC1 [Example B286, 4-Benzoyl-N-[6-chloro-2,4,8,18,22-pentaazatetracyclo[14.3.1.1(3,7).1(9,13)]docosa-1(20),3(22),4,6,9(21),10,12,16,18-nonaen-12-yl]piperazine-1-carboxamide bis(trifluoroacetate)] | < 6.70 | 51% | < 6.70 | 7.37 | < 6.70 |
| O=C(Nc1ccc2cc1CCc1cncc(c1)Nc1ncc(Cl)c(n1)N2)N1CCN(Cc2ccccc2)CC1 [Example B287, 4-Benzyl-N-[6-chloro-2,4,8,18,22-pentaazatetracyclo[14.3.1.1(3,7).1(9,13)]docosa-1(20),3(22),4,6,9(21),10,12,16,18-nonaen-12-yl]piperazine-1-carboxamidetris(trifluoroacetate)] | < 6.70 | 46% | 7.05 | 7.82 | < 6.70 |
| CN(C(=O)Nc1ccc2cc1CCc1cncc(c1)Nc1ncc(Cl)c(n1)N2)[C@H]1CCNC1 [Example B288, N′-[6-Chloro-2,4,8,18,22-pentaazatetracyclo[14.3.1.1(3,7).1(9,13)]docosa-1(20),3(22),4,6,9(21),10,12,16,18-nonaen-12-yl]-N-methyl-N-[(3S)-pyrrolidin-3-yl]urea tris(trifluoroacetate)] | < 6.70 | 18% | 6.74 | 7.38 | < 6.70 |
| CN(C(=O)Nc1ccc2cc1CCc1cncc(c1)Nc1ncc(Cl)c(n1)N2)[C@H]1CCN(C(=O)c2ccccc2)C1 [Example B291, N-[(3S)-1-Benzoylpyrrolidin-3-yl]-N′-[6-chloro-2,4,8,18,22-pentaazatetracyclo[14.3.1.1(3,7).1(9,13)]docosa-1(20),3(22),4,6,9(21),10,12,16,18-nonaen-12-yl]-N-methylurea bis(trifluoroacetate)] | 6.70 | 58% | 7.00 | 7.55 | < 6.70 |
| O=C(Nc1ccc2cc1CCc1cncc(c1)Nc1ncc(Cl)c(n1)N2)N1CCN(c2ccccc2)CC1 [Example B292, N-[6-Chloro-2,4,8,18,22-pentaazatetracyclo[14.3.1.1(3,7).1(9,13)]docosa-1(20),3(22),4,6,9(21),10,12,16,18-nonaen-12-yl]-4-phenylpiperazine-1-carboxamide tris(trifluoroacetate)] | 7.00 | 68% | < 6.70 | 7.49 | < 6.70 |
| O=C(Nc1ccc2cc1CCc1cncc(c1)Nc1ncc(Cl)c(n1)N2)N1CCN(c2ccncc2)CC1 [Example B293, N-[6-Chloro-2,4,8,18,22-pentaazatetracyclo[14.3.1.1(3,7).1(9,13)]docosa-1(20),3(22),4,6,9(21),10,12,16,18-nonaen-12-yl]-4-pyridin-4-ylpiperazine-1-carboxamide tetrakis(trifluoroacetate)] | 6.82 | 45% | < 6.70 | 7.22 | < 6.70 |
| O=C(Nc1ccc2cc1CCc1cncc(c1)Nc1ncc(Cl)c(n1)N2)N1CCN(c2ccccc2F)CC1 [Example B295, N-[6-Chloro-2,4,8,18,22-pentaazatetracyclo[14.3.1.1(3,7).1(9,13)]docosa-1(20),3(22),4,6,9(21),10,12,16,18-nonaen-12-yl]-4-(2-fluorophenyl)piperazine-1-carboxamide tris(trifluoroacetate)] | 6.82 | 50% | 6.70 | 7.52 | < 6.70 |
| COc1ccccc1N1CCN(C(=O)Nc2ccc3cc2CCc2cncc(c2)Nc2ncc(Cl)c(n2)N3)CC1 [Example B298, N-[6-Chloro-2,4,8,18,22-pentaazatetracyclo[14.3.1.1(3,7).1(9,13)]docosa-1(20),3(22),4,6,9(21),10,12,16,18-nonaen-12-yl]-4-(2-methoxyphenyl)piperazine-1-carboxamide tris(trifluoroacetate)] | 6.68 | 62% | 6.47 | 7.54 | < 6.40 |

Now those with a higher pIC50 (TYK2), led by results:

| pIC50 (TYK2) | ALK % of inhibition at a concentration of 500 nM or 1 mM [1] | pIC50 [2] | pIC50 [3] | pIC50 [4] | SMILES |
| --- | --- | --- | --- | --- | --- |
| 7.07 | 65% | 6.87 | 7.77 | < 6.70 | O=C(Nc1ccc2cc1CCc1cncc(c1)Nc1ncc(Cl)c(n1)N2)N1CCN(c2ccccn2)CC1 [Example B289, N-[6-Chloro-2,4,8,18,22-pentaazatetracyclo[14.3.1.1(3,7).1(9,13)]docosa-1(20),3(22),4,6,9(21),10,12,16,18-nonaen-12-yl]-4-pyridin-2-ylpiperazine-1-carboxamide tris(trifluoroacetate)] |
| 7.07 | 54% | 6.82 | 7.72 | < 6.70 | O=C(Nc1ccc2cc1CCc1cncc(c1)Nc1ncc(Cl)c(n1)N2)N1CCN(c2cnccn2)CC1 [Example B294, N-[6-Chloro-2,4,8,18,22-pentaazatetracyclo[14.3.1.1(3,7).1(9,13)]docosa-1(20),3(22),4,6,9(21),10,12,16,18-nonaen-12-yl]-4-pyrazin-2-ylpiperazine-1-carboxamide tetrakis(trifluoroacetate)] |
| 7.09 | 74% | 6.74 | 7.52 | < 6.40 | COc1ccc(N2CCN(C(=O)Nc3ccc4cc3CCc3cncc(c3)Nc3ncc(Cl)c(n3)N4)CC2)cc1 [Example B299, N-[6-Chloro-2,4,8,18,22-pentaazatetracyclo[14.3.1.1(3,7).1(9,13)]docosa-1(20),3(22),4,6,9(21),10,12,16,18-nonaen-12-yl]-4-(4-methoxyphenyl)piperazine-1-carboxamide tris(trifluoroacetate)] |
| 7.23 | 50% | 7.05 | 7.09 | < 6.70 | O=C(Nc1ccc2cc1CCc1cccc(c1)Nc1ncc(Cl)c(n1)N2)N1CCN(c2ccccn2)CC1 [Example B290, N-[6-Chloro-2,4,8,22-tetraazatetracyclo[14.3.1.1(3,7).1(9,13)]docosa-1(20),3(22),4,6,9(21),10,12,16,18-nonaen-12-yl]-4-pyridin-2-ylpiperazine-1-carboxamide bis(trifluoroacetate)] |
| 7.32 | 33% | 7.59 | 8.08 | < 6.70 | O=C(c1coc(Nc2ccc3cc2CCc2cccc(c2)Nc2ncc(Cl)c(n2)N3)n1)N1CCN2CCCC2C1 (centres unmarked) [Example B296, 6-Chloro-N-[4-(hexahydropyrrolo[1,2-a]pyrazin-2(1H)-ylcarbonyl)-2,3-oxazol-2-yl]-2,4,8,22-tetraazatetracyclo[14.3.1.1(3,7).1(9,13)]docosa-1(20),3(22),4,6,9(21),10,12,16,18-nonaen-12-amine bis(trifluoroacetate)] |
| 7.44 | 66% | 7.17 | 7.57 | < 6.40 | O=C(Nc1ccc2cc1CCc1cncc(c1)Nc1ncc(Cl)c(n1)N2)N1CCN(c2ccc(F)cc2)CC1 [Example B297, N-[6-Chloro-2,4,8,18,22-pentaazatetracyclo[14.3.1.1(3,7).1(9,13)]docosa-1(20),3(22),4,6,9(21),10,12,16,18-nonaen-12-yl]-4-(4-fluorophenyl)piperazine-1-carboxamide tris(trifluoroacetate)] |
